Measured values published in US20200237871A1, “METHODS FOR MITIGATING LIVER INJURY AND PROMOTING LIVER HYPERTROPHY, REGENERATION AND CELL ENGRAFTMENT IN CONJUNCTION WITH RADIATION AND/OR RADIOMIMETIC TREATMENTS” (Janssen Pharmaceutica NV, priority 2019, published 2020).
“Also recorded” adds a separate entry of the source.

Columns and labels:
[1] = test system: mice with normal or cirrhotic (CCl4) livers; experiment: SPECT-CT residual perfusion defect volume after hepatic irradiation (Example 2); format: in vivo, mouse
Description: (§1) 8-12-week-old male and female Di-peptyl peptidase IV (DPPIV) −/− knockout mice and 8-12-week-old male and female C57Bl6 mice were used in this study. Animals were weighed in the beginning of the experiment and before tissue collection. All animals were housed in the Institute for Animal Studies at Albert Einstein College of medicine and fed regular rodent chow. All experiments were performed to according to protocols approved by Institutional Animal Care and Use Committee at Albert Einstein College of Medicine. Animals were made cirrhotic using CCl4 administration (intraperitoneal [IP] injections twice a week for at least 11 weeks).
(§2) Image-guided external beam irradiation was performed using a small animal radiation research platform (SARRP, Xstrahl Inc., Suwanee, Ga.). Mice were given gastrografin contrast through gavage to improve visualization of the gastrointestinal (GI) tract. After approximately 2 minutes, mice were positioned on a tubular couch and anesthetized with ˜2% Isofluorane (Isothesia, USP) in 2 L/min pure oxygen. A cone-beam computed tomography (CBCT) scan was acquired and a treatment plan irradiating the median lobe and right lobe was generated using the MuriPlan software. To minimize toxicity, in contrast to Example 1 where two parallel opposed fields were used, irradiation was performed using 2 arcs per liver target with equal dosing weights (likely resulting in more collateral lower dose radiation exposure compared to Example 1). Within the targeted lobes, the position of the isocenter was chosen to minimize irradiation of the GI tract, spine, and heart (the maximum dose to these organs was kept below 10 Gy). Targets were irradiated with 50 Gy X-rays at 220 kVp energy and 13 mA tube current (dose rate of 2.4-2.5 Gy/min) using a 1 mm copper filter for beam hardening. (Brodin et al., The Radiation Safety Journal, 2015, 109 Supp 3, S190).
(§3) TPOm was diluted in sterile PBS to a 10 mg/ml stock. The stock was stored at −20° C. and allowed to come to room temperature prior to administration. TPOm was administered as a single dose (300 μg/kg) via subcutaneous injection 10 minutes after the transplant procedure.
LSEC transplantation is a novel technique that requires a strong growth stimulus for effective liver repopulation (Guha et al., Hepatology, 2002, 36:354-62; Laconi et al., Am. J. Pathol., 1998, 153:319-29). Following isolation of LSECs, 500×10^5 LSECs are transplanted via intrasplenic injection into healthy adult mice anesthetized with Isoflurane (Isothesia, USP) 24 hrs post HIR. […]
SPECT with a radiotracer to assess the progression of RILD in-vivo has been developed and utilized in this work. […] The CT was set on medium resolution and was measured by a dosimeter and read by a third-party company, at an exposure of 5 mRem/hr for each CT scan/animal. […]

DPPIV−/− knockout mice = experiment: LSEC engraftment/repopulation of irradiated liver by DPPIV staining (Examples 2 and 3); format: in vivo, mouse
Description: as §1
as §2, with “To minimize toxicity, in contrast to Example 1 where two parallel opposed fields were used, irradiation was performed using 2 arcs per liver target with equal dosing weights (likely resulting in more collateral lower dose radiation exposure compared to Example 1).” left out, “hardening.” for “hardening. (Brodin et al., The Radiation Safety Journal, 2015, 109 Supp 3, S190).”
as §3
DPPIV was selected as a marker for engraftment of exogenous LSECs in the DPPIV (−/−) animals. […] Slide imaging was done using a Perkin Elmer P250 High Capacity Slide Scanner.
LSECs were isolated from the single-cell suspension using CD146 microbeads (Miltenyi Biotec GmbH #130-092-007).
Following isolation of LSECs, 500×10^5 LSECs are transplanted via intrasplenic injection into healthy adult mice anesthetized with Isoflurane (Isothesia, USP) 24 hrs post HIR. Buprenorphine is given post-op as an analgesic.
To test the efficacy of TPOm as an agent that can cause LSEC engraftment, DPPIV−/− knockout mice received 50GY hepatic irradiation (HIR) to the median and right lobes of the liver using external-beam CT-guided x-ray irradiation, and LSECs that express DPPIV (FIG. 2A).
The methods were identical to those described above with the exception that the LSEC transplant was administered 4-5 days post irradiation and the TPOm or Romiplostim were administered approximately 10 minutes post LSEC transplant.

In the case of “methoxypolyethyleneglycol20000-propionyl-L-Isoleucyl-L-Glutamyl-Glycyl-L-Prolyl-L-Threonyl-L-Leucyl-L-Arginyl-L-Glutaminyl-L-2-Naphthylalanyl-L-Leucyl-L-Alanyl-L-Alanyl-L-Arginyl-Sarcosyl-Ne-(methoxypolyethyleneglycol20000-propionyl-L-Isoleucyl-L-Glutamyl-Glycyl-L-Prolyl-L-Threonyl-L-Leucyl-L-Arginyl-L-Glutaminyl-L-2-Naphthyl alanyl-L-Leucyl-L-Alanyl-L-Alanyl-L-Arginyl-Sarcosyl-)-Lysinamide [RWJ-800088]”, the “perfusion defect of irradiated liver tissue (SPECT-CT), in words” value ([1]; LSEC transplant followed by TPOm injection post irradiation) was “perfusion recovery; also recorded: significant mitigation of defect formation”, the “residual defect 2 months post radiation, cirrhotic liver” value ([1]; cirrhotic livers, RWJ-800088 and LSEC transplantation 24-hours post irradiation, listed as TPOm) was “significantly reduced” and the “mean residual defect volume in the irradiated region” value ([1]; normal livers, RWJ-800088 2 or 24 hours prior to irradiation, without LSEC transplant, 2 months post HIR, listed as TPOm) was “significant reduction in defect volume”. The “residual defect volume in the irradiated area” value ([1]; normal livers, RWJ-800088 and LSEC transplantation 24 hours after irradiation, 2 months post HIR, p=0.03, HIR only 71.4%) was 18.2%, the “repopulation of irradiated liver by transplanted DPPIV(+/+) LSECs (DPPIV staining)” value (DPPIV−/− knockout mice; 50GY HIR + LSEC transplant 24 hrs post HIR, growth stimulus given after transplant, listed as TPOm) was “massive LSEC repopulation” and the “animals with some level of hepatic repopulation” value (DPPIV−/− knockout mice; LSEC+TPOm+HIR) was 6/7. For the same substance, the “Engraftment when LSEC transplant is administered 24 hours post irradiation” value (DPPIV−/− knockout mice; targeted liver irradiation (50 Gy)) was “Yes” and the “Engraftment when LSEC transplant is administered 4-5 days post irradiation” value (DPPIV−/− knockout mice; targeted liver irradiation (50 Gy), drug approximately 10 minutes post LSEC transplant) was “Yes”.
